The source of these data is patent US20240206469A1, “PHOSPHORUS USE EFFICIENCY ENHANCERS AS PLANT GROWTH PROMOTORS” (EUROCHEM ANTWERPEN, priority 2021, published 2024).

One experiment has as its system Arabidopsis. The experiment can be described thus: Arabidopsis vertical plate growth assay (primary root length, shoot biomass). In kind it is in vivo, Arabidopsis thaliana. The following applies: 10 μM, low phosphate. The protocol: (§1) All Arabidopsis plant experiments were performed using the Arabidopsis thaliana Columbia-0 background. The Arabidopsis pSPX1::GUS line is described in the Plant Journal 2008, 54: 965-975. For rice, the cultivar Nipponbare was used. For maize, the cultivars DKC 2931 and B104 were used for regular pot experiments and sand-based pot experiments, respectively. For soybean, the cultivar Primus was used. […] The medium was solidified due to the addition of 0.6% Gelrite, unless stated otherwise. In case of vertical plates (root length and root hair measurements), the medium was supplied with 0.5% of sucrose and 1 μM (low phosphate, 1 μM KH2PO4, 9.9 mM KCl), 10 μM (low phosphate 10 μM KH2PO4, 9.9 mM KCl) or 1.25 mM KH2PO4 (high phosphate). Arabidopsis seeds were stratified for 2 days at 4° C. before germination. Seedlings were germinated in climate-controlled growth chambers at 22° C. under continuous light (100 μmol m^−2 s^−1). Husked rice seeds were germinated on wetted Whatman paper for 2 days at 37° C. and then transferred to Sterivent boxes or square Petri dishes with solid medium. Maize and soybean seeds were wetted 24 hours at room temperature prior to sowing in pots.
(§2) Arabidopsis primary root growth experiments were done on MS1/2 on vertical standing plates and roots were measured 11 days after germination. Roots were imaged using a flatbed scanner (EPSON Expression 11000XL) and root length was measured using ImageJ software. Arabidopsis shoot biomass was determined in 11 days after germination and growth on vertical standing plates with modMS. Arabidopsis leaf area was measured 21 days after germination on horizontal plates with modMS medium. Plates were scanned from the top using a flatbed scanner (EPSON Expression 11000XL) and the visible leaf area was measured using ImageJ software. Rice plate experiments used vertically standing Petri dishes containing MS1/2 medium (low phosphate—0.001 mM) solidified with 0.8% washed agar. Plant height was measured 11 days after germination. […] Plant height was measured 13 days after germination. […]

The test system of the next experiment is Arabidopsis root hairs. The experiment is described as follows: Root hair number and length quantification. In kind it is in vivo, Arabidopsis thaliana. On the procedure:
as §1
Roots were imaged using a stereomicroscope or a VHX-6000. Number and length of the root hairs parallel to the medium surface was determined at 4 to 6 mm above the root meristem. Root hair length was measured using the ImageJ software.

For the next experiment, the system named is Rice. The experiment can be described thus: Rice plate experiment. In kind it is in vivo, rice cultivar Nipponbare. As to conditions: low phosphate 0.001 mM, 10 μM, 11 days after germination, control 14.4. On the procedure: (§3) All Arabidopsis plant experiments were performed using the Arabidopsis thaliana Columbia-0 background. The Arabidopsis pSPX1::GUS line is described in the Plant Journal 2008, 54: 965-975. For rice, the cultivar Nipponbare was used. For maize, the cultivars DKC 2931 and B104 were used for regular pot experiments and sand-based pot experiments, respectively. For soybean, the cultivar Primus was used. […] The medium was solidified due to the addition of 0.6% Gelrite, unless stated otherwise. […]
as §2, with “Rice plate experiments used vertically standing Petri dishes containing MS1/2 medium (low phosphate—0.001 mM) solidified with 0.8% washed agar.” left out

Experiment [1] has as its system Maize. The experiment is described as follows: Sand-based maize pot experiment. In kind it is in vivo, maize cultivar B104. As to conditions: low phosphate. The protocol: as §1
Regular Arabidopsis, soybean and maize pot experiments used an unfertilized potting soil, which was supplemented at the start of the experiment with 50 ml H2O containing 0.25 g/l NH4NO3 and 0.44 g/l (high phosphate) or no (maize and soybean) or 0.11 g/l KH2PO (Arabidopsis) for low phosphate conditions. For the sand-based maize pot experiment, sand was supplemented with 50 ml H2O containing 0.25 g/l NH4NO3 and 0.38 g/l (high phosphate) or 0.02 g/l (low phosphate) KH2PO4. Potassium was balanced via addition of KCl. Compound concentration was 10 μM, calculated based on the total water content after watering, and was added at the start of the experiment (Arabidopsis) or once a week (maize). Indexed chlorophyll contents were received via a SPAD 502 Plus Chlorophyll Meter. All parameters in the sand experiment, except the rate of leaf 4 (measured the first 4 days after emergence), were measured 19 days after sowing. Measurements in the pot experiments with potting soil were done after 4 weeks of growth, except for leaf 5, which was measured at 26 days. One long-term maize pot experiment was conducted with the DKC 2931 (2.5 months) and B104 (3 months) cultivars on the PHENOVISION phenotyping platform as described in Frontiers in Plant Science 2021, 12: 640914, except that an unfertilized potting soil was used and that plants were fertilized with a low-phosphate Hoagland solution. The 2.5× overconcentrated low-phosphate Hoagland solution contained 0.034 g/l KH2PO and 200 mL of this solution was applied twice a week. […]

Experiment [2] deals with Maize. The experiment can be described thus: Regular maize pot experiment (potting soil). In kind it is in vivo, maize cultivar DKC 2931. The following applies: low phosphate, 10 μM. The protocol: as §1
(§4) Regular Arabidopsis, soybean and maize pot experiments used an unfertilized potting soil, which was supplemented at the start of the experiment with 50 ml H2O containing 0.25 g/l NH4NO3 and 0.44 g/l (high phosphate) or no (maize and soybean) or 0.11 g/l KH2PO (Arabidopsis) for low phosphate conditions. […] Compound concentration was 10 μM, calculated based on the total water content after watering, and was added at the start of the experiment (Arabidopsis) or once a week (maize). […] All parameters in the sand experiment, except the rate of leaf 4 (measured the first 4 days after emergence), were measured 19 days after sowing. Measurements in the pot experiments with potting soil were done after 4 weeks of growth, except for leaf 5, which was measured at 26 days. […]

For a further experiment, the system named is Soybean. The experiment is described as follows: Soybean pot experiment. In kind it is in vivo, soybean cultivar Primus. The following applies: low phosphate, 10 μM, 4 weeks. On the procedure: as §3, §4

SMILES strings stand for the structures.

With `CC1CN(CC(=O)c2c(N)n(C)c(=O)n(C)c2=O)c2ccccc2O1` (stereo not drawn) [Compound 8, 6-amino-1,3-dimethyl-5-[2-(2-methyl-2,3-dihydro-1,4-benzoxazin-4-yl)acetyl]pyrimidine-2,4-dione], in the experiment on Arabidopsis (11-day-old Arabidopsis), the “Primary root length versus control without compound” value was “almost double the length of the control”. The Primary root length in the experiment on Arabidopsis (Arabidopsis vertical plate, 11 days after germination, control 1.8) worked out at 3.5 cm. Further, in the experiment with Arabidopsis (Arabidopsis vertical plate, 11 days after germination, control 11), the Shoot biomass is listed as 21 mg. Also, the activity at 0.6 µM in the experiment with Arabidopsis root hairs (Arabidopsis thaliana, 0.6 μM, read-out: Total root hair length per root (in % compared to the control)) came out at 104%. Further, the activity at 1.25 µM with Arabidopsis root hairs (Arabidopsis thaliana, 1.25 μM, read-out: Total root hair length per root (in % compared to the control)) stood at 333%. In addition, in the experiment with Arabidopsis root hairs (Arabidopsis thaliana, 2.5 μM, read-out: Total root hair length per root (in % compared to the control)), the activity at 2.5 µM was determined as 347%. Also, in the experiment with Arabidopsis root hairs (Arabidopsis thaliana, 5 μM, read-out: Total root hair length per root (in % compared to the control)), the activity at 5 µM stood at 485%. In addition, the activity at 10 µM in the experiment on Arabidopsis root hairs (Arabidopsis thaliana, 10 μM, read-out: Total root hair length per root (in % compared to the control)) turned out to be 586%. Further, the “Average root hair length per root in high phosphate conditions” value in the experiment with Arabidopsis root hairs (Arabidopsis vertical plate, high phosphate, control 0.11) is recorded as 0.32 mm. Further, in the experiment with Arabidopsis root hairs (Arabidopsis vertical plate, high phosphate, control 3), the “Root hair number in high phosphate conditions (one plane in 2 mm region)” value is on record as 9. Also, in the experiment on Arabidopsis root hairs (Arabidopsis vertical plate, high phosphate, control 57), the “Total root hair length per root in high phosphate conditions” value came out at 183 cm. The Plant height in the experiment with Rice was found to be 16 cm; in the experiment with Maize [1] (10 μM once a week, 19 days after sowing, control 21), 28 cm; in the experiment with Maize [2] (4 weeks, control 57), 60 cm; in the experiment with Soybean (control 50) it was 55 cm. In the experiment with Maize [1] (19 days after sowing, SPAD, control 28), this compound registered an Indexed chlorophyll content of 32. The same compound came in with a Crown root number with Maize [1] (19 days after sowing, control 2) of 7. The “Growth rate of leaf 4” value in the experiment on Maize [1] (first 4 days after emergence, control 2.04) was determined as 2.46 cm/day. Further, in the experiment with Maize [2] (4 weeks, control 4), the Shoot weight is given as 4.6 g. Further, the “Leaf 5” value with Maize [2] (26 days, control 40) is listed as 48 cm. In addition, the Biomass in the experiment on Soybean (control 4.1) was determined as 4.4 g.
